In patent US20070027181A1, “Benzylisoquinoline derivative- or bisbenzylisoquinoline derivative-containing psychotropic agent, analgesic and/or antiphlogistic, and health food” (EDUCATION CENTER OF TRADITIONAL, priority 2004, published 2007):

Key:
mice [1] = conditions: Ito et al., abstract of the Japanese Society of Pharmacognosy; cited from earlier work
mice [2] = test: formalin pad test; assay type: in vivo, Male ICR mice; conditions: for Licking sustaining time (second) First phase: 0 to 5 minutes; for Licking sustaining time (second) Second phase: 15 to 30 minutes
Description: (§1) In the following Examples, all extracts and drugs used were dissolved in physiological saline before use for i.p. administration and the dose was 0.1 ml of physiological saline per 10 g of mouse body weight in either case. All extracts and drugs were suspended in physiological saline containing 1% sodium carboxymethylcellulose before use for oral administration and the dose was 0.1 ml of 1% sodium carboxymethylcellulose-containing physiological saline suspension per 10 g of mouse body weight in either case. Male ICR mice (Japan SLC) having a body weight of 25 to 30 g were used in the tests below unless otherwise stated, and were fed in advance at a room temperature of 23±1° C. and a relative humidity of 55±5% in the environment of a cycle of 12-hour-light from 7 a.m. to 7 p.m. and 12-hour-dark from 7 p.m. to 7 a.m. for 3 to 5 days. The mice were allowed to have water and feed freely.
A formalin pad test is a method in which, when formalin is subcutaneously administered to a pad of a mouse, the mouse causes licking, and analgesic action of a test drug is determined by utilizing this. Suppression of licking in a test drug-administered group was investigated relative to a physiological saline-administered control group, and analgestic action was evaluated.
Six mice per group were used. Neferine hydrochloride was intraperitoneally administered at a dose of 25 mg/kg, 50 mg/kg or 100 mg/kg and, after fifteen minutes, 20 μl of a 0.2% by weight formalin aqueous solution was subcutaneously administered to a right hind paw pad. After formalin administration, licking was regarded as a provisional pain reaction, and a licking sustaining time in a first phase from immediately after formalin administration to five minutes after formalin administration and in a second phase from 15 minutes to 30 minutes after formalin administration was measured. Regarding the resulting measurements, a significant difference test was performed by a Dunnet multiple comparison test method.
According to the same manner as in Example 13 except that 10 mg/kg of O-methylarmepavine was intraperitoneally administered in place of neferine, a formalin pad test was performed.

mice [3] = test: locomotor activity (ultromotivity) test, evaluation of sedative action; assay type: in vivo, Male ICR mice
Description: as §1
Twenty five mice were grouped into five groups each having five mice, to which 5 mg/kg of N-methylcoclaurine hydrochloride (treatment group 1-1: i.p. administration), 50 mg/kg of neferine hydrochloride (treatment group 1-2: oral administration, and treatment group 1-3: i.p. administration), 50 mg/kg of liensinine hydrochloride (treatment group 1-4: oral administration), or physiological saline (negative control group 1-1: i.p. administration) was administered. The ultromotivity of the mice was analyzed by using a locomotor activity monitoring system (NS-AS01, Neuroscience Inc.). The ultromotivity measurements were performed at an interval of 5 minutes for 60 minutes, and the ultromotivity was judged from the count at each measuring time.
Similar tests were conducted by i.p. administration of 25 mg/kg of N-norarmepavine (treatment group 1-5, n=6), 25 mg/kg of O,O-dimethylcoclaurine (treatment group 1-6, n=5), 10 mg and 25 mg/kg of armepavine (respectively, treatment group 1-7, n=6, and treatment group 1-8, n=6), 10 mg and 25 mg/kg of O-methylarmepavine (respectively, treatment group 1-9, n=6, and treatment group 1-10, n=6), and physiological saline (negative control group 1-2, n=5). The ultromotivity measurements were performed at an interval of five minutes for 60 minutes, and the ultromotivity was subjected to a significant difference test (Tukey's method) by using the counts at respective measuring times.
Tests were performed by using mice administered intraperitoneally with 25 mg/kg of neferine hydrochloride (treatment group 7-1, n=6), 25 mg/kg of liensinine hydrochloride (treatment group 7-2, n=6), and physiological saline (negative control group, n=6) as well as 5 mg/kg of diazepam (positive control group, n=6) and a rotarod equipment (Ugo Basile, Italy) and a locomotor activity monitoring system (NS-AS01, Neuroscience Inc.). The rotarod test was performed by placing a mouse on a rod having a diameter of 4 cm rotating at a speed of 8 rpm 15 minutes after drug administration and observing whether the mouse can stay on the rod without falling for three minutes. The individuals that had fallen from the rotating rod in the period of 3 minutes were judged that they are with motor coordination disorder. […] In addition, the ultromotivity measurements were performed at an interval of five minutes for 60 minutes, and the ultromotivity results were subjected to a significant difference test (Tukey's method) by using the counts at respective measuring times.

[4] = 25 mg/kg i.p. 15 minutes before formalin
[5] = 50 mg/kg i.p. 15 minutes before formalin
[6] = 100 mg/kg i.p. 15 minutes before formalin

## COc1ccc(C[C@@H]2c3cc(Oc4cc(C[C@@H]5c6cc(OC)c(OC)cc6CCN5C)ccc4O)c(OC)cc3CCN2C)cc1 [neferine]
Mice [1]
  locomotor activity-inhibiting action: exhibited a locomotor activity-inhibiting action
Mice [2]; [4]
  Licking sustaining time (second) First phase: 95.2 ± 3.79 s
  Licking sustaining time (second) Second phase: 235.7 ± 13.01 s
Mice [2]; [5]
  Licking sustaining time (second) First phase: 98.7 ± 8.57 s
  Licking sustaining time (second) Second phase: 200.3 ± 24.43 s
Mice [2]; [6]
  Licking sustaining time (second) First phase: 78.3 ± 7.57 s
  Licking sustaining time (second) Second phase: 139.7 ± 18.61 s
Mice [3]; 25 mg/kg i.p., Tukey's method, 60 minutes
  Significant difference test of ultromotivity: P < 0.01
Mice [3]; 50 mg/kg i.p.
  Ultromotivity (count) 30 minutes: 500 count
Mice [3]; 50 mg/kg i.p., 60 minutes
  Ultromotivity (count) 60 minutes: 760 count
Mice [3]; 50 mg/kg oral
  Ultromotivity (count) 30 minutes: 500 count
Mice [3]; 50 mg/kg oral, 60 minutes
  Ultromotivity (count) 60 minutes: 750 count
